According to patent US6770299B1, “Lipid matrix-drug conjugates particle for controlled release of active ingredient” (PharmaSol GmbH, priority 1999, dated 2004):

Assays:
[1] = tested on: HL 60 tumor cells (human myeloid leukemia cell line); test: Differentiation of HL 60 tumor cells, NBT reduction; assay type: cell-based; conditions: HL 60 cells, free tributyrin dissolved in ethanol
Method: The effectiveness of tributyrin drug vehicles was measured in HL 60 tumor cells (human myeloid leukemia cell line). HL 60 cells are a sensitive indicator of the effect of tributyrin. It brings about a differentiation of the tumor cells to granulocyte-like cells. The latter have the property of reducing NBT (nitro-blue tetrazolium) to a blue dye (H. P. Koeffler et al. Blood 62 1 (983) 709-721). Tributyrin-compritol particles, consisting of equal parts of tributyrin and compritol (glycerine tribehenate) were prepared as in Example 1. The overall lipid concentration was 5%, the Poloxamer 188 concentration likewise 5%. The particle size was 147 nm (PCS diameter), the polydispersion index 0.321. The differentiation effect was compared with that of free tributyrin, dissolved in ethanol. […] An adequate quantity of tributyrin-compritol nanoparticle dispersion was, like the corresponding quantities of surfactant solution and pure compritol particle dispersion, added to HL 60 cells and the NBT reduction ascertained after 6 days' incubation time at 37° C. and 5% carbon dioxide content.

[2] = tested on: solid tumors; conditions: oral preparation, phase 1 study; cited from earlier work

Structure (SMILES): CCCC(=O)OCC(COC(=O)CCC)OC(=O)CCC [tributyrin, 1,2,3 butyric acid glycerol ester]
- effective 50% dosage (ED 50%), differentiation effect [1]: 130 µM
- tumor regression [2]: No significant tumor regression
